Consider 31 compounds from the NIST ThermoML archive (doi:10.1021/je900502s).

± gives the expanded uncertainty stated by the source.

For data set [1] the following is noted: for surface tension liquid-gas: Pendant drop shape; for mass density: 101.33 kPa, Liquid, Pycnometric method.
For data set [2] the following is noted: 293.15 K; 101 kPa; Liquid mixture 1; pendant drop method.

With `CCCCCCCC[N+](C)(CCCCCCCC)CCCCCCCC.O=S(=O)([N-]S(=O)(=O)C(F)(F)F)C(F)(F)F`, the surface tension liquid-gas in data set [1] (293.15 K) turned out to be 22.77 ± 0.43 mN/m.

`CCCCCCCCn1cc[n+](C)c1.O=S(=O)([N-]S(=O)(=O)C(F)(F)F)C(F)(F)F`: in data set [1] (293.15 K), the surface tension liquid-gas turned out to be 30.55 ± 0.56 mN/m and the mass density worked out at 1340 ± 4 kg/m3. Turning to `CCCCCCN(CCCCCC)C(N(C)C)=[N+](CCCCCC)CCCCCC.N#C[N-]C#N`, in data set [1] (293.15 K), the surface tension liquid-gas is given as 21.35 ± 0.49 mN/m.

For `CCCCCCN(CCCCCC)C(N(C)C)=[N+](CCCCCC)CCCCCC.[Cl-]`, the surface tension liquid-gas in data set [1] (293.15 K) is 28.95 ± 0.57 mN/m. In data set [1] (298.15 K), the mass density stood at 943 ± 50 kg/m3. As to `CCCC[n+]1ccn(C)c1.O=S(=O)([N-]S(=O)(=O)C(F)(F)F)C(F)(F)F`, the mass density in data set [1] (293.15 K) was 1452 ± 13 kg/m3. Besides, the surface tension liquid-gas in data set [1] (298.15 K) amounted to 38.37 ± 0.69 mN/m. Regarding `CCCCn1cc[n+](C)c1C.O=S(=O)([N-]S(=O)(=O)C(F)(F)F)C(F)(F)F`, in data set [1] (293.15 K), the surface tension liquid-gas came out at 26.66 ± 0.49 mN/m and the mass density is recorded as 1425 ± 24 kg/m3. Turning to `CCCCCCCCn1cc[n+](C)c1.O=S(=O)([N-]S(=O)(=O)C(F)(F)F)C(F)(F)F` + O, the interfacial tension in data set [2] is listed as 22.81 ± 0.41 mN/m. Still for that read-out and setting: with `CCCC[n+]1ccn(C)c1.O=S(=O)([N-]S(=O)(=O)C(F)(F)F)C(F)(F)F` + O the figure was 15.15 ± 0.55 mN/m; with `CCCCn1cc[n+](C)c1C.O=S(=O)([N-]S(=O)(=O)C(F)(F)F)C(F)(F)F` + O, 17.04 ± 1.3 mN/m.

Regarding `OCCO` [1,2-ethanediol], in data set [1] (293.15 K), the mass density stood at 1121 ± 7 kg/m3. With `COCCn1cc[n+](C)c1.F[B-](F)(F)F` [1-(2-methoxyethyl)-3-methyl-imidazolium tetrafluoroborate], in data set [1] (293.15 K), the surface tension liquid-gas is reported as 35.31 ± 0.64 mN/m and the mass density came to 1306 ± 7 kg/m3. For `CCCCn1cc[n+](C)c1.N#CN=C=[N-]` [1-butyl-3-methylimidazolium dicyanamide] the same measures were 38.14 ± 0.68 mN/m and 1066 ± 10 kg/m3. Consider `CCCCn1cc[n+](C)c1.F[B-](F)(F)F` [1-butyl-3-methylimidazolium tetrafluoroborate], for which, in data set [1] (293.15 K), the surface tension liquid-gas was 44.28 ± 0.79 mN/m. Further, the figures for the mass density in data set [1] (293.15 K) and in data set [1] (298.15 K) were 1212 ± 5 kg/m3 and 1217 ± 12 kg/m3, respectively. Turning to `CCCCCCCCCCn1cc[n+](C)c1.N#C[N-]C#N` [1-decyl-3-methylimidazolium dicyanamide], in data set [1] (293.15 K), the surface tension liquid-gas was determined as 31.15 ± 0.57 mN/m and the mass density is 1003 ± 5 kg/m3. The like results for `CCCCCCCCCCn1cc[n+](C)c1.F[B-](F)(F)F` [1-decyl-3-methylimidazolium tetrafluoroborate] were, in that order, 23.65 ± 0.48 mN/m and 1076 ± 3 kg/m3. For `CCOS(=O)(=O)[O-].CCn1cc[n+](C)c1` [1-ethyl-3-methylimidazolium ethyl sulfate] the same measures were 46.13 ± 0.91 mN/m and 1242 ± 4 kg/m3. The like results for `CCCCCCCC[n+]1ccn(C)c1.[Cl-]` [1-methyl-3-octylimidazolium chloride] were, in that order, 26.2 ± 0.57 mN/m and 971 ± 6 kg/m3. For `CCCCCCCC[n+]1ccn(C)c1.F[B-](F)(F)F` [1-methyl-3-octylimidazolium tetrafluoroborate], in data set [1] (293.15 K), the surface tension liquid-gas is given as 33.22 ± 0.6 mN/m and the mass density is reported as 1110 ± 5 kg/m3. For the same compound, the mass density in data set [1] (298.15 K) was 1115 ± 46 kg/m3. In the case of `Cn1cc[n+](CCO)c1.N#C[N-]C#N` [3-(2-hydroxyethyl)-1-methyl-1H-imidazol-3-ium dicyanoazanide], in data set [1] (293.15 K), the surface tension liquid-gas is reported as 45.75 ± 0.81 mN/m and the mass density came to 1179 ± 3 kg/m3.

Take `CCCCCCCCn1cc[n+](C)c1.N#C[N-]C#N` [3-methyl-1-octylimidazolium dicyanamide]: in data set [1] (293.15 K), the surface tension liquid-gas was 36.86 ± 0.66 mN/m and the mass density is reported as 1013 ± 3 kg/m3. Consider `CCCCCCCC[N+](C)(CCCCCCCC)CCCCCCCC.N#C[N-]C#N` [N,N,N-trioctyl-N-methylammonium dicyanamide], for which, in data set [1] (293.15 K), the surface tension liquid-gas was found to be 28.8 ± 0.53 mN/m. Moreover, the mass density in data set [1] (298.15 K) is 890 ± 3 kg/m3. For the compound `CCCCCCCC[N+](C)(CCCCCCCC)CCCCCCCC.[Cl-]` [N-methyl-N,N-dioctyl-1-octanaminium chloride], in data set [1] (293.15 K), the surface tension liquid-gas is reported as 26.44 ± 0.49 mN/m and the mass density is given as 891 ± 6 kg/m3. Besides, the mass density in data set [1] (298.15 K) was determined as 896 ± 18 kg/m3. Consider `CCCCCCCC[N+](C)(CCCCCCCC)CCCCCCCC.[Cl-]` [N-methyl-N,N-dioctyl-1-octanaminium chloride] + O, for which the interfacial tension in data set [2] is reported as 3.66 ± 0.36 mN/m.

Take `ClCCl` [dichloromethane]: the mass density in data set [1] (293.15 K) was 1327 ± 9 kg/m3. Take `CCCCCCCCO` [octan-1-ol]: the mass density in data set [1] (293.15 K) is reported as 831 ± 3 kg/m3.

Consider `CCCCCCCCO` [octan-1-ol] + O, for which, in data set [2], the interfacial tension worked out at 8.3 ± 0.5 mN/m. As to `CCCCCCCCCCCCCC[P+](CCCCCC)(CCCCCC)CCCCCC.N#C[N-]C#N` [tetradecyl(trihexyl)phosphonium dicyanamide], the surface tension liquid-gas in data set [1] (293.15 K) was determined as 30.99 ± 0.61 mN/m. Consider `CCCCCCCCCCCCCC[P+](CCCCCC)(CCCCCC)CCCCCC.Cc1ccc(S(=O)(=O)[O-])cc1` [tetradecyl(trihexyl)phosphonium tosylate], for which the surface tension liquid-gas in data set [1] (293.15 K) came out at 23.2 ± 0.53 mN/m. For the same compound, the mass density in data set [1] (298.15 K) stood at 1003 ± 22 kg/m3. Consider `CCCCCCCCCCCCCC[P+](CCCCCC)(CCCCCC)CCCCCC.[Cl-]` [trihexyl(tetradecyl)phosphonium chloride], for which, in data set [1] (293.15 K), the surface tension liquid-gas was determined as 30.7 ± 0.56 mN/m and the mass density was found to be 918 ± 6 kg/m3.

On to `CCCCCCCCCCCCCC[P+](CCCCCC)(CCCCCC)CCCCCC.[Cl-]` [trihexyl(tetradecyl)phosphonium chloride] + O, for which the interfacial tension in data set [2] worked out at 6.11 ± 0.17 mN/m. With `O` [water], the mass density in data set [1] (293.15 K) is 1013 ± 5 kg/m3.
